{"source": "paper PMC7949139", "about": "“The molecular basis of OH-PCB estrogen receptor activation” (The Journal of Biological Chemistry, 2021)", "key": {"[1]": {"tested_on": "estrogen receptor (ER) activation in (-) SULT1E1 control Ishikawa cells", "assay": "Estrogen receptor activation (alkaline phosphatase activity), control strain", "type": "cell-based", "conditions": "Homo sapiens, Control cell line, OH-PCB titration at 10 nM E2 (footnote a), NE = No Effect, read-out: Ligand EC50, ER activation", "method": "pcDNA 3.1 constructs harboring either the SULT1E1 WT or double mutant (F75A/F80A) coding regions were generated using Gibson Assembly ([74]). The vectors were linearized using BGIII. Ishikawa cells were grown at 37 °C ± 2 deg. C in growth medium (MEM media containing 10% v/v FBS). At confluence, the cells were washed (3×) with PBS media before coating with an Opti-MEM solution containing a linearized construct (50 ng μg^−1) and lipofectamine (2.5 units ml^−1). After 24 h at 37 °C ± 2 deg. C, cells were washed (3×) with PBS before adding growth medium containing neomycin (400 μg ml^−1) to select transfectants. Selective growth medium was replenished every 48 h until single colonies could be isolated (∼3–6 weeks). Single colonies were transferred using trypsin digest (0.05%) to 12-well plates and grown at 37 °C ± 2 deg. C to confluence for further experimentation and storage.\nTransfected Ishikawa cells were grown at 37 °C ± 2 deg. C to 60 to 70% confluency in MEM containing 10% v/v FBS. Cells were then transferred to 96-well tissue culture plates and grown at 37 °C ± 2 deg. C to 80% confluency in MEM containing 10% v/v charcoal filtered FBS. The plate was then washed with PBS and grown at 37 °C ± 2 deg. C for 24 h in MEM without FBS. Estradiol (0–3.0 μM) and OH-PCB (0–1.0 μM) solubilized in neat DMSO were added and cells were incubated at 37 °C ± 2 deg. C for 5 days. The final concentrations of DMSO were ≤0.10%. Cells were then washed twice with PBS before adding pNpp (5.0 mM) in PBS ([75]). Following incubation with pNpp for 3 h at 25 °C ± 2 deg. C, wells were read at 405 nm using a Synergy HT BioTek Plate Reader."}, "[2]": {"target": "T1, spin-labeled SULT1E1, spin label attached at Cys residue 16 (C69S/G16C) (Homo sapiens, UniProt P49888, C69S/G16C)", "T1 construct": "E. coli codon-optimized SULT1E1 coding region inserted into the PreScission Protease cleavage site; His/GST/MBP triple tag (N, cleaved yes); made in house; host or cells: E. coli BL21(DE3)", "T1 sequence (P49888 1-294 G16C/C69S)": "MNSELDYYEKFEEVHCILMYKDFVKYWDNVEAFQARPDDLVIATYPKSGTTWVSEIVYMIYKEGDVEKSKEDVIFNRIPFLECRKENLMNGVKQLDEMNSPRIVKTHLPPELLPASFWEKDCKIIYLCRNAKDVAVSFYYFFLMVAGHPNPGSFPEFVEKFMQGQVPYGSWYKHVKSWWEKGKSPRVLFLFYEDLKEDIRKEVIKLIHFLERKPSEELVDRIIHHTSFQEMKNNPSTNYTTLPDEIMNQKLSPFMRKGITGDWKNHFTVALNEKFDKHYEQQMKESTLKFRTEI", "assay": "Initial-rate studies, spin-labeled construct (label at Cys 16)", "type": "biochemical", "conditions": "spin label at Cys 16; parentheses = one SD; read-out: Ki OH-PCB1", "method": "Spin labels were attached to the SULT1E1 scaffold at Cys residues that were site-specifically incorporated via PCR-based mutagenesis. Prior to creating spin-label attachment constructs, reactive Cys was removed from the native scaffold. Only one of the four native SULT1E1 Cys (i.e., C69) reacts with DTNB ([39]), and mutagenic conversion of C69 to ser produced a stable, fully active non-DTNB-reactive scaffold. Five individual cys-attachment constructs were prepared from the C69S mutant (G16C, K25C, N150C, Q163C, and N233C). Mutants were labeled (see, Experimental procedures) and the initial rate parameters (kcat, Km and Ki) of each spin-labeled mutant were determined (see, Experimental procedures, Initial-Rate studies) to evaluate whether the catalytic integrity of the constructs had been compromised by the insertions and/or spin label attachments. […]\nLabels (N-cyclohexylmale-imide or 3-maleimido-PROXYL) were added in 20-fold excess over reactive cysteine to a solution containing SULT1E1 construct (50 μM active sites), 0.50 mM PAP, and 50 mM KPO4 (pH 7.4), 25 °C ± 2 deg. […] The reactions were monitored by using DTNB to measure unreacted cysteine and were considered complete when >98% of the cysteine had reacted (∼3 h).\nC. Reaction progress was monitored via the fluorescence change associated with 1-HP sulfonation (λex = 325 nm, λem = 370 nm ([51], [52])). […]"}, "[3]": {"target": "T2, SULT1E1 F75A (Homo sapiens, UniProt P49888, F75A)", "T2 construct": "E. coli codon-optimized SULT1E1 coding region inserted into the PreScission Protease cleavage site; His/GST/MBP triple tag (N, cleaved yes); made in house; host or cells: E. coli BL21(DE3)", "T2 sequence (P49888 1-294 F75A)": "T1 sequence (P49888 1-294 G16C/C69S) with C16G, S69C, F75A", "assay": "Initial-rate studies (1-HP sulfonation; OH-PCB1 inhibition), F75A mutant", "type": "biochemical", "method": "(§1) C. Reaction progress was monitored via the fluorescence change associated with 1-HP sulfonation (λex = 325 nm, λem = 370 nm ([51], [52])). Initial rates were measured during conversion to product of ≤5% of the concentration-limiting substrate consumed at the reaction endpoint. Velocities were determined in triplicate. Km and kcat were obtained by (1/v^4)-weighted least-squares fitting of the averaged data in double-reciprocal space (i.e., 1/v versus 1/[S]) ([66], [67]).\n(§2) Inhibition studies were performed as described above except: 1-HP was fixed (2.0 μM, 100 × Km), OH-PCBs were added (0.20–20 × Ki), and SULT1E1 was 0.20 nM (active sites). Ki was determined by least-squares fitting to a noncompetitive inhibition model ([66], [67])."}, "[4]": {"target": "T3, SULT1E1 F80A (Homo sapiens, UniProt P49888, F80A)", "T3 construct": "E. coli codon-optimized SULT1E1 coding region inserted into the PreScission Protease cleavage site; His/GST/MBP triple tag (N, cleaved yes); made in house; host or cells: E. coli BL21(DE3)", "T3 sequence (P49888 1-294 F80A)": "T1 sequence (P49888 1-294 G16C/C69S) with C16G, S69C, F80A", "assay": "Initial-rate studies (1-HP sulfonation; OH-PCB1 inhibition), F80A mutant", "type": "biochemical", "method": "as §1, §2"}, "[5]": {"conditions": "noncompetitive inhibition model, parentheses = one SD"}}, "note": "Substitutions are numbered along the chain they refer to."}
{"smiles": "Oc1ccc(-c2c(Cl)cccc2Cl)cc1", "note": "[OH-PCB1, 4ʹ-OH-2,6-dichlorobiphenol]", "values": [{"measurement": "EC50", "setting": "[1]", "value": "> 1000", "unit": "nM"}, {"measurement": "Ki", "setting": "[2]", "value": 63, "unit": "nM"}, {"measurement": "Fold Effect = Ki OH-PCB1/Ki OH-PCB1 WT", "setting": "[3]", "value": 11}, {"measurement": "Ki", "setting": "[3]; [5]", "value": 630, "unit": "nM"}, {"measurement": "Fold Effect = Ki OH-PCB1/Ki OH-PCB1 WT", "setting": "[4]", "value": 12}, {"measurement": "Ki", "setting": "[4]; [5]", "value": 730, "unit": "nM"}]}
